# Test system: Aedes albopictus
# Assay: Room (30 m^3) release of 20 treated Chironomus against 10 sentinel cups, mosquito pupal mortality
# Assay type: in vivo
# Conditions: 20 treated Chironomus released in 30 m^3 room, 2 days (48 hour exposure), 10 cups each with 250 ml oak infusion
# From the text: FIG. 2. Mosquito pupal mortality achieved by releasing oil treated 20 Chironomus adults in a 30 m^3 room for 2 days against 10 sentinel cups. The average pupal mortality of Aedes albopictus was 88±3.5%.
# Chironomus females don't need blood feeding and the larvae are easy to culture. […] The larvae developed in cryptic sentinel cups indicated the treated female has visited the cup and laid eggs. In the same cup, pupal mortality of Aedes albpictus indicated the pyriproxyfen transfer (FIG. 5). We further challenged the technology in a meshed tunnel (50×3×2 m) setup in the field with 10 cryptic sentinel cups inside (FIG. 7) by releasing 50 treated C. decorus females for 5 days. […] The backyard experiment was conducted by treating 800 chironomid adults with oil formulation (20% a.i) first and followed with powder formulation (60% a.i) at a separate location to avoid contamination. In this experiment, the active ingredient (a.i.) was pyriproxyfen. In order to avoid any dew effect, release time was in the afternoon between 2 to 5 pm. […]
# Adults (males and females) of C. decorus (0 to 2 days old) will be collected and stored in a cage constructed with metal window screen. […] The cage with contaminated Chironomus then will be removed from the bottom of the chamber and ready for release in cases where only oil treatment is desired. […]
smiles,measurement,value
CC(COc1ccc(Oc2ccccc2)cc1)Oc1ccccn1 (stereo not shown) [pyriproxyfen],average pupal mortality of Aedes albopictus,88.5±3.5%

# From patent publication US11375708B2, “Methods and apparatus for management of mosquito populations with habitat sharing heterospecific insects carrying insect growth regulators” (Rutgers, The State University of New Jersey, priority 2015, dated 2022)
